Like-named read-outs stand apart in the source and are kept apart here.
Assays:
[1] = test system: ECHCG; assay: Example II: in-water applied herbicidal mixtures, transplanted paddy rice, ECHCG; type: in vivo, Echinochloa crus-galli (barnyardgrass); conditions: for Visual Weed Control (%) - 21 DAA ECHCG Obs / Visual Weed Control (%) - 22 DAA ECHCG Obs: in-water application
How it was run: (§1)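 Greenhouse paddy pots of dried mud; rice seedlings at the second or third leaf stage were transplanted into mud 4 days before treatment. Osmocote 19:6:12 supplied nutrients. Solutions were pipetted individually and sequentially into the paddy water, with equal acetone and crop oil concentrate across treatments; controls got solvent blank.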

[2] = test system: SCPMA; assay: Example II: in-water applied herbicidal mixtures, transplanted paddy rice, SCPMA; type: in vivo
How it was run: as §1

[3] = test system: ECHOR; assay: Example II: in-water applied herbicidal mixtures, transplanted paddy rice, ECHOR; type: in vivo, Echinochloa oryzoides (early watergrass); conditions: for Visual Weed Control (%) - 20 DAA ECHOR Obs / Visual Weed Control (%) - 22 DAA ECHOR Obs: in-water application
How it was run: as §1

[4] = test system: BRSNN; assay: Example IV: postemergence foliar-applied herbicidal mixtures, cereal crops, BRSNN; type: in vivo, Brassica napus (volunteer canola); conditions: 8.75 gai/ha
Protocol: Seeds of the desired test plant species were planted in Sun Gro MetroMix 306 planting mixture, which typically has a pH of 6.0 to 6.8 and an organic matter content of about 30 percent, in plastic pots with a surface area of 103.2 square centimeters (cm^2). […] The plants were grown for 7-36 days in a greenhouse with an approximate 14 hour photoperiod which was maintained at about 18° C. during the day and 17° C. during the night.
Spray solutions of the second cereal herbicide and experimental compound mixtures were prepared by adding the stock solutions to the appropriate amount of dilution solution to form 12 mL spray solution with active ingredients in two- and three-way combinations.

[5] = test system: ECHCG; assay: Example I: postemergence foliar-applied herbicidal mixtures, direct seeded rice, ECHCG
Protocol: (§2) The soil matrix was contained in plastic pots with a volume of 1 quart and a surface area of 83.6 square centimeters (cm^2). […] The plants were grown for 8-22 days in a greenhouse with an approximate 14 h photoperiod which was maintained at about 29° C. during the day and 26° C. during the night. Nutrients (Peters Excel® 15-5-15 5-Ca 2-Mg and iron chelate) were applied in the irrigation solution as needed and water was added on a regular basis. Supplemental lighting was provided with overhead metal halide 1000-Watt lamps as necessary. The plants were employed for testing when they reached the first through fourth true leaf stage.
(§3) Treatments consisted of the acid or esters of 4-amino-3-chloro-5-fluoro-6-(4-chloro-2-fluoro-3-methoxy-phenyl)pyridine-2-carboxylic acid (Compound A), each formulated as an SC (suspension concentrate), and various herbicidal components alone and in combination. Forms of compound A were applied on an acid equivalent basis.
(§4) For treatments comprised of formulated compounds, measured amounts of compounds were placed individually in 25 mL glass vials and diluted in a volume of 1.25% (v/v) Agri-Dex® crop oil concentrated to obtain 12× stock solutions. […] Application solutions were prepared by adding an appropriate amount of each stock solution (e.g., 1 mL) and diluted to the appropriate final concentrations with the addition of 10 mL of an aqueous mixture of 1.25% (v/v) crop oil concentrate so that the final spray solutions contained 1.25+/−0.05% (v/v) crop oil concentrate.
(§5) All stock solutions and applications solutions were visually inspected for compound compatibility prior to application. Spray solutions were applied to the plant material with an overhead Mandel track sprayer equipped with a 8002E nozzles calibrated to deliver 187 L/ha over an application area of 0.503 m^2 at a spray height of 18 to 20 inches (46 to 50 cm) above average plant canopy height. Control plants were sprayed in the same manner with the solvent blank.
(§6) The treated plants and control plants were placed in a greenhouse as described above and watered by sub-irrigation to prevent wash-off of the test compounds. After approximately 3 weeks, the condition of the test plants as compared with that of the untreated plants was determined visually and scored on a scale of 0 to 100 percent where 0 corresponds to no injury or growth inhibition and 100 corresponds to complete kill.
(§7) Colby's equation was used to determine the herbicidal effects expected from the mixtures (Colby, S. R. 1967. Calculation of the synergistic and antagonistic response of herbicide combinations. Weeds 15:20-22).
(§8) The following equation was used to calculate the expected activity of mixtures containing two active ingredients, A and B: Expected=A+B−(A×B/100)
(§9) A=observed efficacy of active ingredient A at the same concentration as used in the mixture.
(§10) B=observed efficacy of active ingredient B at the same concentration as used in the mixture.

[6] = test system: CYPRO; assay: Example II: in-water applied herbicidal mixtures, weed control in transplanted paddy rice (greenhouse), CYPRO; type: in vivo, Cyperus rotundus (purple nutsedge); conditions: for Visual Weed Control (%) - 21 DAA CYPRO Obs / Visual Weed Control (%) - 22 DAA CYPRO Obs: in-water application; for Visual Weed Control (%) Obs: 20 DAA
How it was run: as §1

[7] = test system: DIGSA; assay: Example I: postemergence foliar-applied herbicidal mixtures, direct seeded rice, DIGSA
[8] = test system: LEFCH; assay: Example II: in-water applied herbicidal mixtures, transplanted paddy rice, LEFCH; type: in vivo, Leptochloa chinensis (Chinese sprangletop); conditions: for Visual Weed Control (%) - 21 DAA LEFCH Obs / Visual Weed Control (%) - 25 DAA LEFCH Obs: in-water application
How it was run: as §1

[9] = test system: IPOHE; assay: Example I: postemergence foliar-applied herbicidal mixtures, direct seeded rice, IPOHE; type: in vivo, Ipomoea hederacea (ivyleaf morningglory)
Protocol: as §2, §3, §4, §5, §6, §7, §8, §9, §10

[10] = test system: ECHCO; assay: Example I: postemergence foliar-applied herbicidal mixtures, direct seeded rice, ECHCO; conditions: for Visual Weed Control (%) - 21 DAA ECHCO Obs: Fluroxypyr MHE 0 gae/ha
Protocol: as §2, §3, §4, §5, §6, §7, §8, §9, §10

[11] = test system: LEFCH; assay: Example I: postemergence foliar-applied herbicidal mixtures, direct seeded rice, LEFCH; type: in vivo, Leptochloa chinensis (Chinese sprangletop)
Protocol: as §2, §3, §4, §5, §6, §7, §8, §9, §10

[12] = test system: CYPIR; assay: Example I: postemergence foliar-applied herbicidal mixtures, direct seeded rice, CYPIR; type: in vivo, Cyperus iria (rice flatsedge)

## COc1c(Cl)ccc(-c2nc(C(=O)OCc3ccccc3)c(Cl)c(N)c2F)c1F [Compound A Benzyl Ester, benzyl ester of 4-amino-3-chloro-5-fluoro-6-(4-chloro-2-fluoro-3-methoxy-phenyl)pyridine-2-carboxylic acid]
[1]; 4.38 gae/ha
  Visual Weed Control (%) - 21 DAA ECHCG Obs: 0%
  Visual Weed Control (%) - 22 DAA ECHCG Obs: 30%
[1]; 8.75 gae/ha
  Visual Weed Control (%) - 21 DAA ECHCG Obs: 0%
  Visual Weed Control (%) - 22 DAA ECHCG Obs: 45%
[1]; 17.5 gae/ha
  Visual Weed Control (%) - 21 DAA ECHCG Obs: 25%
[1]; 19 DAA, 8 gae/ha
  Visual Weed Control (%) Obs: 35%
[1]; 19 DAA, 16 gae/ha
  Visual Weed Control (%) Obs: 85%
[1]; 20 DAA, 4.38 gae/ha
  Visual Weed Control (%) Obs: 15%
[1]; 20 DAA, 8.75 gae/ha
  Visual Weed Control (%) Obs: 20%
[1]; 20 DAA, 17.5 gae/ha
  Visual Weed Control (%) Obs: 40%
[1]; 22 DAA, 4.38 gae/ha
  Visual Weed Control (%) Obs: 30%
[1]; 22 DAA, 8.75 gae/ha
  Visual Weed Control (%) Obs: 45%
[1]; 22 DAA, 17.5 gae/ha
  Visual Weed Control (%) Obs: 90%
[2]; 20 DAA, 35 gae/ha
  Visual Weed Control (%) Obs: 0%
[2]; 20 DAA, 70 gae/ha
  Visual Weed Control (%) Obs: 0%
[2]; 21 DAA, 4.38 gae/ha
  Visual Weed Control (%) Obs: 0%
[2]; 21 DAA, 8.75 gae/ha
  Visual Weed Control (%) Obs: 0%
[2]; 21 DAA, 17.5 gae/ha
  Visual Weed Control (%) Obs: 0%
[2]; 22 DAA, 4.38 gae/ha
  Visual Weed Control (%) Obs: 0%
[2]; 22 DAA, 8.75 gae/ha
  Visual Weed Control (%) Obs: 0%
[2]; 22 DAA, 17.5 gae/ha
  Visual Weed Control (%) Obs: 0%
[3]; 4.38 gae/ha
  Visual Weed Control (%) - 20 DAA ECHOR Obs: 10%
[3]; 8.75 gae/ha
  Visual Weed Control (%) - 20 DAA ECHOR Obs: 20%
  Visual Weed Control (%) - 22 DAA ECHOR Obs: 25%
[3]; 17.5 gae/ha
  Visual Weed Control (%) - 20 DAA ECHOR Obs: 50%
  Visual Weed Control (%) - 22 DAA ECHOR Obs: 45%
[3]; Echinochloa oryzoides, 456 h, read-out: Visual Weed Control (%) Obs, 19 DAA, 8 gae/ha
  pest or weed control at 8 g/ha: 10%
[3]; Echinochloa oryzoides, 456 h, read-out: Visual Weed Control (%) Obs, 19 DAA, 16 gae/ha
  pest or weed control at 16 g/ha: 25%
[3]; Echinochloa oryzoides, 456 h, read-out: Visual Weed Control (%) Obs, 19 DAA, 32 gae/ha
  pest or weed control at 32 g/ha: 35%
[3]; Echinochloa oryzoides, 480 h, read-out: Visual Weed Control (%) Obs, 20 DAA, 4.38 gae/ha
  pest or weed control at 4.38 g/ha: 25%
[3]; Echinochloa oryzoides, 480 h, read-out: Visual Weed Control (%) Obs, 20 DAA, 8.75 gae/ha
  pest or weed control at 8.75 g/ha: 20%
[3]; Echinochloa oryzoides, 480 h, read-out: Visual Weed Control (%) Obs, 20 DAA, 17.5 gae/ha
  pest or weed control at 17.5 g/ha: 30%
[3]; Echinochloa oryzoides, 480 h, read-out: Visual Weed Control (%) Obs, 20 DAA, 35 gae/ha
  pest or weed control at 35 g/ha: 73%
[3]; Echinochloa oryzoides, 504 h, read-out: Visual Weed Control (%) Obs, 21 DAA, 4.38 gae/ha
  pest or weed control at 4.38 g/ha: 15%
[3]; Echinochloa oryzoides, 504 h, read-out: Visual Weed Control (%) Obs, 21 DAA, 8.75 gae/ha
  pest or weed control at 8.75 g/ha: 15%
[3]; Echinochloa oryzoides, 504 h, read-out: Visual Weed Control (%) Obs, 21 DAA, 17.5 gae/ha
  pest or weed control at 17.5 g/ha: 20%
[3]; Echinochloa oryzoides, 528 h, read-out: Visual Weed Control (%) Obs, 22 DAA, 8.75 gae/ha
  pest or weed control at 8.75 g/ha: 35%
[3]; Echinochloa oryzoides, 528 h, read-out: Visual Weed Control (%) Obs, 22 DAA, 17.5 gae/ha
  pest or weed control at 17.5 g/ha: 30%
[3]; Echinochloa oryzoides, 600 h, read-out: Visual Weed Control (%) Obs, 25 DAA, 8.75 gae/ha
  pest or weed control at 8.75 g/ha: 85%
[3]; Echinochloa oryzoides, 600 h, read-out: Visual Weed Control (%) Obs, 25 DAA, 17.5 gae/ha
  pest or weed control at 17.5 g/ha: 90%
[4]; after 20-22 days
  Weed Control Ob: 23%
[4]; alone, foliar, 20-22 days
  BRSNN Ob (observed value): 23%
[5]; 4.38 gae/ha
  Visual Weed Control (%) - 21 DAA ECHCG Obs: 48%
  Visual Weed Control (%) - 23 DAA ECHCG Obs: 40%
[5]; 8.75 gae/ha
  Visual Weed Control (%) - 21 DAA ECHCG Obs: 55%
  Visual Weed Control (%) - 23 DAA ECHCG Obs: 55%
[5]; Compound A Benzyl Ester rate printed '—' (second line), Fluroxypyr MHE 0 gae/ha
  Visual Weed Control (%) - 21 DAA ECHCG Obs: 85%
[5]; Compound A Benzyl Ester rate printed '—', Fluroxypyr MHE 0 gae/ha
  Visual Weed Control (%) - 21 DAA ECHCG Obs: 10%
[6]; 4.38 gae/ha
  Visual Weed Control (%) - 21 DAA CYPRO Obs: 0%
  Visual Weed Control (%) - 22 DAA CYPRO Obs: 90%
  Visual Weed Control (%) Obs: 0%
[6]; 8.75 gae/ha
  Visual Weed Control (%) - 21 DAA CYPRO Obs: 0%
  Visual Weed Control (%) - 22 DAA CYPRO Obs: 70%
  Visual Weed Control (%) Obs: 0%
[7]; 4.38 gae/ha
  Visual Weed Control (%) - 23 DAA DIGSA Obs: 0%
[7]; 8.75 gae/ha
  Visual Weed Control (%) - 23 DAA DIGSA Obs: 0%
[7]; 17.5 gae/ha
  Visual Weed Control (%) - 23 DAA DIGSA Obs: 15%
[7]; 35 gae/ha
  Visual Weed Control (%) - 20 DAA DIGSA Obs: 38%
[8]; 4.38 gae/ha
  Visual Weed Control (%) - 21 DAA LEFCH Obs: 0%
[8]; 8.75 gae/ha
  Visual Weed Control (%) - 21 DAA LEFCH Obs: 0%
  Visual Weed Control (%) - 25 DAA LEFCH Obs: 50%
[8]; 17.5 gae/ha
  Visual Weed Control (%) - 21 DAA LEFCH Obs: 0%
  Visual Weed Control (%) - 25 DAA LEFCH Obs: 90%
[8]; 19 DAA, 35 gae/ha
  Visual Weed Control (%) Obs: 80%
[8]; 25 DAA, 8.75 gae/ha
  Visual Injury (%) Obs: 50%
  Visual Weed Control (%) Obs: 50%
[8]; 25 DAA, 17.5 gae/ha
  Visual Injury (%) Obs: 90%
  Visual Weed Control (%) Obs: 90%
[9]; 4.38 gae/ha
  Visual Weed Control (%) - 20 DAA IPOHE Obs: 0%
[9]; 8.75 gae/ha
  Visual Weed Control (%) - 20 DAA IPOHE Obs: 10%
[9]; 17.5 gae/ha
  Visual Weed Control (%) - 20 DAA IPOHE Obs: 25%
[10]; 4.38 gae/ha
  Visual Weed Control (%) - 20 DAA ECHCO Obs: 50%
  Visual Weed Control (%) - 23 DAA ECHCO Obs: 40%
[10]; 8.75 gae/ha
  Visual Weed Control (%) - 20 DAA ECHCO Obs: 75%
  Visual Weed Control (%) - 23 DAA ECHCO Obs: 40%
[10]; 17.5 gae/ha
  Visual Weed Control (%) - 23 DAA ECHCO Obs: 75%
[10]; Compound A Benzyl Ester rate printed '—' (second line)
  Visual Weed Control (%) - 21 DAA ECHCO Obs: 75%
[10]; Compound A Benzyl Ester rate printed '—'
  Visual Weed Control (%) - 21 DAA ECHCO Obs: 70%
[11]; 4.38 gae/ha
  Visual Weed Control (%) - 20 DAA LEFCH Obs: 0%
[11]; 8.75 gae/ha
  Visual Weed Control (%) - 20 DAA LEFCH Obs: 20%
[11]; 16 gae/ha
  Visual Weed Control (%) - 19 DAA LEFCH Obs: 58%
[12]; 4.38 gae/ha
  Visual Weed Control (%) - 21 DAA CYPIR Obs: 75%
[12]; 8.75 gae/ha
  Visual Weed Control (%) - 20 DAA CYPIR Obs: 35%
  Visual Weed Control (%) - 21 DAA CYPIR Obs: 85%

From patent US8912120B2, “Herbicidal compositions comprising 4-amino-3-chloro-5-fluoro-6-(4-chloro-2-fluoro-3-methoxyphenyl) pyridine-2-carboxylic acid or a derivative thereof and synthetic auxin herbicides” (Dow AgroSciences, LLC., priority 2012, dated 2014)
